Like-named read-outs stand apart in the source and are kept apart here. Residues, ends and D or L forms follow the SMILES beside them. *: point of attachment. Benzoyl(4-F) = O=C(c1ccc(F)cc1)*

One data set addresses αvβ6 integrin (Homo sapiens, UniProt P06756+P18564). Nature of the data set: Competitive binding ELISA with purified integrin, αvβ6. As for the experimental part: (§1) Small aliquots (50 mg, ˜150,000 beads) were incubated with a mixture of red fluorescent DX3 ITGβ6 mCherry (αvβ6-positive) and green fluorescent DX3 EmGFP (αvβ6-negative) cells for 3 hours and evaluated under a fluorescent microscope. Beads that were covered only by red (i.e. αvβ6-positive) cells were isolated; these beads were subsequently characterized by Edman sequencing. Following synthesis of the identified peptides, competitive binding ELISA was performed with purified integrin to evaluate binding specificities for the target αvβ6 integrin as well as closely related αv-integrins.
Anti-αv capture antibody P2W7 (5 μg/mL, Novus Biologicals) was coated onto Nunc MaxiSorp 96-well plates, followed by blocking with BSA overnight at 4° C. All wells were washed 3 times with PBS, followed by plating of purified integrin (3 μg/mL) and incubating at room temperature in a humid chamber for 1 hour. Peptide solutions, titrated (1 μM-1 pM for αvβ6 integrin and 100 μM-100 pM for αvβ3 integrin) and mixed with biotinylated natural ligand, were added to the integrin-coated wells in triplicate. […] Captured biotinylated natural ligand was detected with ExtrAvidin-HRP and developed with TMB substrate. Half-maximal inhibitory concentration (IC50) of peptides was determined fitting to sigmoidal dose-response model in GraphPad Prism 6.0 (FIG. 5A).
On the technique in general: ELISA stands for enzyme-linked immunosorbent assay.

Data set [1] concerns the target (Homo sapiens, UniProt P06756+P18084). The data set can be described thus: Competitive binding ELISA with purified integrin, αvβ4 (so in the source). As for the experimental part: as §1
Anti-αv capture antibody P2W7 (5 μg/mL, Novus Biologicals) was coated onto Nunc MaxiSorp 96-well plates, followed by blocking with BSA overnight at 4° C. All wells were washed 3 times with PBS, followed by plating of purified integrin (3 μg/mL) and incubating at room temperature in a humid chamber for 1 hour. Peptide solutions, titrated (1 μM-1 pM for αvβ6 integrin and 100 μM-100 pM for αvβ3 integrin) and mixed with biotinylated natural ligand, were added to the integrin-coated wells in triplicate. After incubating for an hour at room temperature, the plate was washed 3 times with wash buffer. Captured biotinylated natural ligand was detected with ExtrAvidin-HRP and developed with TMB substrate. Half-maximal inhibitory concentration (IC50) of peptides was determined fitting to sigmoidal dose-response model in GraphPad Prism 6.0 (FIG. 5A).

A further data set has as its target αvβ3 integrin (Homo sapiens, UniProt P05106+P06756). Nature of the data set: Competitive binding ELISA with purified integrin, αvβ3. Here is the method: as §1, with “As described further below, a 9-mer XXDLXXLXK(FB) (SEQ ID NO: 23) peptide library was assembled on TentaGel resin (1 g, ˜3,000,000 beads) using standard Fmoc chemistry. Small” for “Small”
(§2) Anti-αv capture antibody P2W7 (5 μg/mL, Novus Biologicals) was coated onto Nunc MaxiSorp 96-well plates, followed by blocking with BSA overnight at 4° C. All wells were washed 3 times with PBS, followed by plating of purified integrin (3 μg/mL) and incubating at room temperature in a humid chamber for 1 hour. […] Captured biotinylated natural ligand was detected with ExtrAvidin-HRP and developed with TMB substrate. Half-maximal inhibitory concentration (IC50) of peptides was determined fitting to sigmoidal dose-response model in GraphPad Prism 6.0 (FIG. 5A). […]

Data set [2] is described as follows: Log P of radiolabeled peptide. It is filed as physicochemical. The note with it: peptide radiolabeled with [18F]fluorobenzoic acid. As for the experimental part: (§3) Based on selectivity profiles of all peptides, the ST1-62 peptide was selected to move forward for radiolabeling with [^18F]fluorobenzoic acid for log P, serum stability, and cell binding studies. Log P=−1.09±0.02 (FIG. 6B). Serum stability of the peptide was determined at 1 hour after incubating with mouse serum at 37° C. (FIG. 7A).

Another data set addresses αvβ1 (Homo sapiens, UniProt P05556+P06756). Nature of the data set: Competitive binding ELISA with purified integrin, αvβ1. Here is the method:
as §1, with “As described further below, a 9-mer XXDLXXLXK(FB) (SEQ ID NO: 23) peptide library was assembled on TentaGel resin (1 g, ˜3,000,000 beads) using standard Fmoc chemistry. Small” for “Small”
as §2

The nature of data set [3]: Serum stability in mouse serum, HPLC analysis. It is filed as in vitro ADME. The note with it: [18F]-radiolabeled peptide, 37° C., an hour. As for the experimental part: Serum stability study analysis of Peptide 1 (ST1-62) (SEQ ID NO:2) was performed by first incubating the radiolabeled peptide ([^18F]; 25 μCi) with commercially available mouse serum at 37° C. for an hour. The radiotracer was removed from serum by precipitating out the protein with cold EtOH and then injected into a HPLC for analysis.
as §3

Data set [4] deals with DX3puroβ6 (αvβ6-positive) and DX3 puro (αvβ6-negative) cells. The data set can be described thus: Flow cytometry binding to DX3puroβ6 and DX3 puro cells. It is filed as cell-based, human. To be noted: peptide concentrations of 10 μM and 100 μM. The source says:
FIGS. 8A and 8B show binding of a peptide labeled with FAM-X ([…]-FAM-X; SEQ ID NO:15) to DX3puroβ6 and DX3 puro cells. […] 150,000 cells were used in each experiment. […] These studies used 75,000, 150,000, or 300,000 cells per experiment. The control experiment used 300,000 unstained cells.
Flow cytometry was used to assay the binding of a peptide labeled with FAM-X ([…]-FAM-X; SEQ ID NO:15) to DX3puroβ6 and DX3 puro cells.

With `CN[C@H](C(=O)NCC(=O)N[C@@H](CC(=O)O)C(=O)N[C@@H](CC(C)C)C(=O)N[C@H](C(=O)N[C@@H](Cc1ccc(O)cc1)C(=O)N[C@@H](CC(C)C)C(=O)N[C@@H](CCCCN)C(=O)N[C@@H](CCCCNC(=O)c1ccc(F)cc1)C(N)=O)[C@@H](C)O)C(C)C`, on αvβ6 integrin, the IC50 was determined as 0.5 µM.
Consider `CSCC[C@H](NC(=O)[C@H](CC(C)C)NC(=O)[C@H](CC(=O)O)NC(=O)CNC(=O)[C@@H](N)CCCNC(=N)N)C(=O)N[C@@H](CCCCN)C(=O)N[C@@H](CC(C)C)C(=O)N[C@@H](C)C(=O)N[C@@H](CCCCNC(=O)c1ccc(F)cc1)C(N)=O` [ST1-59] (H-RGDLMKLAK(Benzoyl(4-F))-NH2), for which the 50% inhibitory concentration (IC50) in data set [1] is more than 100 µM.
`CC(C)C[C@H](NC(=O)[C@H](CC(=O)O)NC(=O)CNC(=O)[C@@H](N)CCCNC(=N)N)C(=O)N[C@@H](C)C(=O)N[C@@H](CC(=O)O)C(=O)N[C@@H](CC(C)C)C(=O)N[C@@H](CCCNC(=N)N)C(=O)N[C@@H](CCCCNC(=O)c1ccc(F)cc1)C(N)=O` [ST1-60] (H-RGDLADLRK(Benzoyl(4-F))-NH2): the IC50 in data set [1] (competitive binding ELISA, read-out: IC50 αvβ4) was more than 100 µM; at αvβ3 integrin, 0.5 µM.
Molecule `CC(C)C[C@H](NC(=O)[C@H](CCC(=O)O)NC(=O)[C@H](CCCNC(=N)N)NC(=O)[C@H](CC(C)C)NC(=O)[C@H](CC(=O)O)NC(=O)CNC(=O)[C@@H](N)CCCNC(=N)N)C(=O)N[C@@H](C)C(=O)N[C@@H](CCCCNC(=O)c1ccc(F)cc1)C(N)=O` [ST1-61] (H-RGDLRELAK(Benzoyl(4-F))-NH2) gave a half-maximal inhibitory concentration (IC50) in data set [1] of more than 100 µM.
Take `CC(C)C[C@H](NC(=O)[C@H](Cc1ccc(O)cc1)NC(=O)[C@@H](NC(=O)[C@H](CC(C)C)NC(=O)[C@H](CC(=O)O)NC(=O)CNC(=O)[C@@H](N)C(C)C)[C@@H](C)O)C(=O)N[C@@H](CCCCN)C(=O)N[C@@H](CCCCNC(=O)c1ccc(F)cc1)C(N)=O` [ST1-62]: the IC50 (in data set [1]; at αvβ1) was more than 100 µM each time. Also, the logP in data set [2] was -1.09 ± 0.02. Also, the Serum stability result in data set [3] is “cleaved by proteases within an hour”.
For the molecule “VGDLTYLKK-FAM-X (FAM label; C-term FAM-X, fluorescein dye/label) [Fluorescent labeled peptide]”, in data set [4], the “Binding to αvβ6-positive versus αvβ6-negative cells” value is “increased binding to the αvβ6-positive cells than the αvβ6-negative cells”.

For orientation: IC50 means the concentration that inhibits the measured activity by half. A word on the logP: it is a log measure of how a compound divides between an organic and an aqueous phase. Higher therefore signals higher lipophilicity.

These data come from patent US12023391B2, “Alpha(v)beta(6) integrin-binding peptides and methods of use thereof” (The Regents of the University of California, priority 2016, dated 2024).
